Assay results published in patent US5219884A, “Immunosuppressant” (Taito Co., Ltd., priority 1990, dated 1993).
Converted amounts (≈) assume the structure as drawn. Where two headings read alike, the source gives them in different places.

Assays:
[1] = system: anti-sheep red blood cell antibody production in BALB/c mice; assay: suppression of mouse anti-sheep red blood cell antibody production (PFC); type: in vivo; conditions: Experiment 1, 4 days
Procedure: (§1) Males 5- to 7-week-old BALB/c mice were immunized with sheep red blood cells (SRBC), and the spleen was resected three or four days later. By counting the plaque forming cells (PFC), suppressive effect on the production of the anti-sheep red blood cell antibody was examined as follows.
(§2) BALB/c mice were immunized with SRBC (1×10^7 cells/mouse, intravenous administration), and ISP-I in the Example 1 was administered intraperitoneally for 4 consecutive days from the day of immunization. Four days after immunization (the next day of the final administration), the spleen was resected and the anti-sheep red blood cell antibody-producing cells were determined by the direct plaque method. At the same time the body weight of the mouse, wet weight of the thymus and the spleen, and numbers of spleen cells were also determined.
(§3) BALB/c mice were immunized with SRBC (5×10^7 cells/mouse, intravenous administration), and the compound in the Example 5 was administered intraperitoneally for 4 consecutive days from the day of immunization. Four days after immunization (the next day of the final administration), the spleen was resected, and the anti-sheep red blood cell antibody-producing cells were determined by the direct plaque method. At the same time, the body weight of the mouse, wet weight of the thymus and the spleen, and numbers of spleen cells were also determined.

[2] = body weight, wet weight of thymus and spleen, number of spleen cells in SRBC-immunized mice; type: in vivo, mouse; conditions: for Number of spleen cells: Experiment 1; for Body weight / Wet weight spleen / Wet weight thymus: mouse, in vivo
Procedure: as §1, §2, §3

[3] = system: human allogenic MLR (peripheral blood lymphocytes); assay: human allogenic MLR-suppressive activity; type: cell-based
Procedure: The human allogenic MLR-suppressive activity was assayed as follows:
Human peripheral blood lymphocytes obtained by Ficoll-Paque density gradient centrifugation of normal human peripheral blood were suspended in the RPMI1640 medium supplemented with 10% FCS, placed in plastic dishes, and incubated at 37° C. in an atmosphere of 5% carbon dioxide for 2 hours. After termination of incubation, the supernatant after gentle pipetting was harvested and centrifuged (1000 rpm, for 5 minutes) to obtain plastic-nonadherent cells. The plastic-nonadherent cells were allowed to pass through a nylon-wool column to give nylon-nonadherent cells, and the concentration of the cell suspension was adjusted to 4×10^6 cells/ml by using the RPMI1640 culture medium supplemented with 10% FCS, and used as the responder cell suspension.
The plastic-adherent cells were removed from the plastic dish by vigorous pipetting after addition of phosphate buffered saline supplemented with 5% FCS and 0.02% disodium ethylenediamine-tetraacetic acid (EDTA). The plastic-adherent cells were treated with 40 μg/ml of mitomycin C at 37° C. for 60 minutes, washed three times, and suspended to the concentration of 4×10^6 cells/ml in the RPMI1640 culture medium supplemented with 10% FCS. The resultant suspension was used as the stimulator cell suspension. Fifty μl of the responder cell suspension from the donor A or C was mixed with 50 μl of the stimulator cell suspension from the donor B or D, to which 100 μl of the test substance was added, and cultured at 37° C. in the an atmosphere 5% carbon dioxide for 5 days.
After termination of the culture, 1.0 μCi/well of ^3 H-thymidine was added, and after 18 hours of culture, the cells were harvested by a cell-harvester. The radioactivity incorporated into the cells was measured by a liquid scintillation counter as the index of blastogenic response of lymphocytes in human allogenic MLR. The suppression of human allogenic MLR was evaluated by calculating the percent suppression by the following formula. [formula]

[4] = system: IL2-dependent mouse cell line CTLL-2; assay: suppression of IL-2 induced 3H-thymidine incorporation of CTLL-2; type: cell-based; conditions: for inhibition at 0.1 µg/mL / inhibition at 10 µg/mL / inhibition at 0.01 µg/mL / inhibition at 1 µg/mL: Mus musculus; for inhibition at 0.1 µg/mL / inhibition at 10 µg/mL / inhibition at 0.01 µg/mL: read-out: Suppression
Procedure: IL2-dependent mouse cell line CTLL-2 cells were suspended in the RPMI1640 culture medium supplemented with 30% FCS to a concentration of 2×10^5 cells/ml. The suspension (50 μl) and 50 μl of concanavalin A-stimulated rat spleen cell culture supernatants containing IL2 were added to each well of 96-well microculture plates in which 100 μl of the test substance had been placed. After culturing at 37° C. in an atmosphere of 5% carbon dioxide for 20, 44, or 68 hours, 0.5 μCi/well of ^3 H-thymidine was added, and cultured for 4 hours under the same conditions. After termination of the culture, the cells were harvested by a cell harvester, and the radioactivity incorporated into the cells was measured by a liquid scintillation counter.

Q: For CCCCCCC(=O)CCCCCC/C=C/CC(O)C(O)C(N)(CO)C(=O)O (stereo not drawn) [Example 1], which “Number of PFC per 1 × 10^7 cell” value ([1]; 0.3 mg/kg/day i.p.) is on record?
A: 1.4 ± 0.4 × 10^3 /1 × 10^7 cell

Q: What about the “Number of PFC per spleen” value ([1]; 0.3 mg/kg/day i.p.) of the same molecule?
A: 0.9 ± 0.3 × 10^4 /spleen

Q: What about the “Number of PFC per 1 × 10^7 cell” value ([1]; 1 mg/kg/day i.p.) of the same molecule?
A: 0.5 ± 0.2 × 10^3 /1 × 10^7 cell

Q: And the “Number of PFC per spleen” value ([1]; 1 mg/kg/day i.p.)?
A: 0.3 ± 0.1 × 10^4 /spleen

Q: What about the “Number of PFC per 1 × 10^7 cell” value ([1]; 3 mg/kg/day i.p.) of the same molecule?
A: 0.2 ± 0.1 × 10^3 /1 × 10^7 cell

Q: What about the “Number of PFC per spleen” value ([1]; 3 mg/kg/day i.p.) of the same molecule?
A: 0.1 ± 0.0 × 10^4 /spleen

Q: What about the “Number of spleen cells” value ([2]; 0.3 mg/kg/day) of the same molecule?
A: 1.4 ± 0.3 × 10^8 cell

Q: What about the “Number of spleen cells” value ([2]; 1 mg/kg/day) of the same molecule?
A: 1.3 ± 0.4 × 10^8 cell

Q: What about the “Number of spleen cells” value ([2]; 3 mg/kg/day) of the same molecule?
A: 1.3 ± 0.2 × 10^8 cell

Q: What about the Body weight ([2]; 0.3 mg/kg/day) of the same molecule?
A: 23 ± 2 g

Q: What about the Wet weight spleen ([2]; 0.3 mg/kg/day) of the same molecule?
A: 202 ± 4 mg

Q: And the Wet weight thymus ([2]; 0.3 mg/kg/day)?
A: 48 ± 5 mg

Q: What about the Body weight ([2]; 1 mg/kg/day) of the same molecule?
A: 23 ± 1 g

Q: And the Wet weight spleen ([2]; 1 mg/kg/day)?
A: 206 ± 32 mg

Q: And the Wet weight thymus ([2]; 1 mg/kg/day)?
A: 50 ± 1 mg

Q: What about the Body weight ([2]; 3 mg/kg/day) of the same molecule?
A: 19 ± 1 g

Q: And the Wet weight spleen ([2]; 3 mg/kg/day)?
A: 137 ± 17 mg

Q: What about the Wet weight thymus ([2]; 3 mg/kg/day) of the same molecule?
A: 25 ± 14 mg

Q: What about the inhibition at 0.0001 µg/mL ([3]; Homo sapiens, Lymphocyte, donor A/donor B, 0.0001 μg/ml, read-out: Suppression) of the same molecule?
A: 51.8%

Q: What about the inhibition at 0.001 µg/mL ([3]; Homo sapiens, Lymphocyte, donor A/donor B, 0.001 μg/ml, read-out: Suppression) of the same molecule?
A: 77.7%

Q: And the inhibition at 0.01 µg/mL ([3]; Homo sapiens, Lymphocyte, donor A/donor B, 0.01 μg/ml, read-out: Suppression)?
A: 73.3%

Q: And the inhibition at 0.1 µg/mL ([3]; Homo sapiens, Lymphocyte, donor A/donor B, 0.1 μg/ml, read-out: Suppression)?
A: 79%

Q: What about the inhibition at 1 µg/mL ([3]; Homo sapiens, Lymphocyte, donor A/donor B, 1 μg/ml, read-out: Suppression) of the same molecule?
A: 80.1%

Q: What about the inhibition at 10 pg/mL ([3]; Homo sapiens, Lymphocyte, donor C/donor D, 0.00001 μg/ml, read-out: Suppression) of the same molecule?
A: 37.7%

Q: What about the inhibition at 0.0001 µg/mL ([3]; Homo sapiens, Lymphocyte, donor C/donor D, 0.0001 μg/ml, read-out: Suppression) of the same molecule?
A: 44%

Q: What about the inhibition at 0.001 µg/mL ([3]; Homo sapiens, Lymphocyte, donor C/donor D, 0.001 μg/ml, read-out: Suppression) of the same molecule?
A: 67.9%

Q: What about the inhibition at 0.01 µg/mL ([3]; Homo sapiens, Lymphocyte, donor C/donor D, 0.01 μg/ml, read-out: Suppression) of the same molecule?
A: 74.8%

Q: And the inhibition at 0.1 µg/mL ([3]; Homo sapiens, Lymphocyte, donor C/donor D, 0.1 μg/ml, read-out: Suppression)?
A: 79.2%

Q: And the inhibition at 1 µg/mL ([3]; Homo sapiens, Lymphocyte, donor C/donor D, 1 μg/ml, read-out: Suppression)?
A: 76.5%

Q: What about the inhibition at 10 µg/mL ([3]; Homo sapiens, Lymphocyte, donor C/donor D, 10 μg/ml, read-out: Suppression) of the same molecule?
A: 88.8%

Q: What about the IC50 ([3]; Homo sapiens, Lymphocyte, read-out: 50%-inhibition concentration (IC50)) of the same molecule?
A: 0.1 ng/mL (≈ 0.249 nM)

Q: What about the inhibition at 10 µg/mL ([3]; Homo sapiens, Lymphocyte, read-out: Suppression) of the same molecule?
A: 100%

Q: What about the 3H-thymidine uptake ([3]; donor A/donor B, 0.0001 μg/ml) of the same molecule?
A: 12769 cpm

Q: What about the 3H-thymidine uptake ([3]; donor A/donor B, 0.001 μg/ml) of the same molecule?
A: 7190 cpm

Q: What about the 3H-thymidine uptake ([3]; donor A/donor B, 0.01 μg/ml) of the same molecule?
A: 8138 cpm

Q: And the 3H-thymidine uptake ([3]; donor A/donor B, 0.1 μg/ml)?
A: 6922 cpm

Q: What about the 3H-thymidine uptake ([3]; donor A/donor B, 1 μg/ml) of the same molecule?
A: 6690 cpm

Q: What about the 3H-thymidine uptake ([3]; donor A/donor B, 10 μg/ml) of the same molecule?
A: 1082 cpm

Q: What about the 3H-thymidine uptake ([3]; donor C/donor D, 0.00001 μg/ml) of the same molecule?
A: 10896 cpm

Q: What about the 3H-thymidine uptake ([3]; donor C/donor D, 0.0001 μg/ml) of the same molecule?
A: 9806 cpm

Q: What about the 3H-thymidine uptake ([3]; donor C/donor D, 0.001 μg/ml) of the same molecule?
A: 5646 cpm

Q: And the 3H-thymidine uptake ([3]; donor C/donor D, 0.01 μg/ml)?
A: 4460 cpm

Q: And the 3H-thymidine uptake ([3]; donor C/donor D, 0.1 μg/ml)?
A: 3613 cpm

Q: What about the 3H-thymidine uptake ([3]; donor C/donor D, 1 μg/ml) of the same molecule?
A: 4167 cpm

Q: What about the 3H-thymidine uptake ([3]; donor C/donor D, 10 μg/ml) of the same molecule?
A: 2018 cpm

Q: And the 3H-thymidine uptake ([4]; 24 hrs, 0.01 μg/ml)?
A: 6003 cpm

Q: And the 3H-thymidine uptake ([4]; 24 hrs, 0.1 μg/ml)?
A: 3722 cpm

Q: What about the 3H-thymidine uptake ([4]; 24 hrs, 1 μg/ml) of the same molecule?
A: 3977 cpm

Q: What about the 3H-thymidine uptake ([4]; 24 hrs, 10 μg/ml) of the same molecule?
A: 1968 cpm

Q: And the 3H-thymidine uptake ([4]; 48 hrs, 0.01 μg/ml)?
A: 19592 cpm

Q: And the 3H-thymidine uptake ([4]; 48 hrs, 0.1 μg/ml)?
A: 7324 cpm

Q: And the 3H-thymidine uptake ([4]; 48 hrs, 1 μg/ml)?
A: 4794 cpm

Q: What about the 3H-thymidine uptake ([4]; 48 hrs, 10 μg/ml) of the same molecule?
A: 1649 cpm

Q: And the 3H-thymidine uptake ([4]; 72 hrs, 0.01 μg/ml, control 78515 cpm)?
A: 56688 cpm

Q: And the 3H-thymidine uptake ([4]; 72 hrs, 0.1 μg/ml, control 78515 cpm)?
A: 2436 cpm

Q: What about the 3H-thymidine uptake ([4]; 72 hrs, 1 μg/ml, control 78515 cpm) of the same molecule?
A: 846 cpm

Q: What about the 3H-thymidine uptake ([4]; 72 hrs, 10 μg/ml, control 78515 cpm) of the same molecule?
A: 478 cpm

Q: And the inhibition at 0.1 µg/mL ([4]; CTLL-2, 24 h)?
A: 45.5%

Q: And the inhibition at 10 µg/mL ([4]; CTLL-2, 72 h)?
A: 100%

Q: What about the inhibition at 0.01 µg/mL ([4]; CTLL-2, 24 hrs, 0.01 μg/ml) of the same molecule?
A: 10.3%

Q: What about the inhibition at 1 µg/mL ([4]; CTLL-2, 24 hrs, 1 μg/ml) of the same molecule?
A: 41.5%

Q: And the inhibition at 10 µg/mL ([4]; CTLL-2, 24 hrs, 10 μg/ml)?
A: 72.5%

Q: And the inhibition at 0.01 µg/mL ([4]; CTLL-2, 48 hrs, 0.01 μg/ml)?
A: 22.7%

Q: What about the inhibition at 0.1 µg/mL ([4]; CTLL-2, 48 hrs, 0.1 μg/ml) of the same molecule?
A: 72.2%

Q: And the inhibition at 1 µg/mL ([4]; CTLL-2, 48 hrs, 1 μg/ml)?
A: 82.4%

Q: What about the inhibition at 10 µg/mL ([4]; CTLL-2, 48 hrs, 10 μg/ml) of the same molecule?
A: 95.1%

Q: What about the inhibition at 0.01 µg/mL ([4]; CTLL-2, 72 hrs, 0.01 μg/ml, control 78515 cpm) of the same molecule?
A: 28%

Q: What about the inhibition at 0.1 µg/mL ([4]; CTLL-2, 72 hrs, 0.1 μg/ml, control 78515 cpm) of the same molecule?
A: 97.7%

Q: And the inhibition at 1 µg/mL ([4]; CTLL-2, 72 hrs, 1 μg/ml, control 78515 cpm)?
A: 99.8%
